The values that follow come from patent US20260325643A1, “METHOD AND PHARMACEUTICAL COMPOSITION FOR VISIBLE LIGHT-INDUCED CORNEAL CROSSLINKING WITH RUTHENIUM COMPOUNDS FOR THE TREATMENT OF EYE DISORDERS” (KOC UNIVERSITESI, priority 2022, published 2026).

Data set [1] concerns human corneal epithelial cells (HCECs) and limbal mesenchymal stem cells (LMSCs). As to the kind of experiment: Cell viability / cytotoxicity, HCECs and LMSCs taken together. Particulars: Ruthenium or/and SPS. The data set is classed as cell-based. An excerpt:
Furthermore, the cytotoxic effects of Ruthenium and SPS compound on human corneal epithelial cells (HCECs) and limbal mesenchymal stem cells (LMSCs) were investigated to determine the ruthenium concentration and time needed for the cross-linking process. The relative viabilities of cells were detected by CellTiter-Glo® Luminescent Cell Viability Assay (Promega, Mannheim, Germany) detected the relative viabilities of cells, which is a method used to detect the number of viable cells depending on the amount of ATP in alive cells. […] (FIGS. 3A-3B)

Data set [2] deals with LMSCs and HCECs. As to the kind of experiment: Annexin V-FITC/PI flow cytometry. The data set is classed as cell-based, human. Particulars: 1 hour treatment; compared with ruthenium-SPS treated cells. Here is the method: The effects of [Ru(bpy)3]^2+ and SPS solutions on cell viability and apoptosis were examined by Annexin-V/propidium iodide (PI) staining in flow cytometry. LMSCs and HCECs (10^5 cells/well) were plated in 6-well culture dishes. [Ru(bpy)3]^2+ and SPS in various concentrations (1 mM and 10 mM) were added to the cell culture medium. The cells were incubated for 1 hour at 37 °C. After the treatment with the solutions, the cells were collected and washed with PBS at 4 °C. The cells were resuspended in 1× binding buffer at a 1×10^5 cells/ml density. 100 μl of the cell suspension were labeled with 2.5 μl of fluorochrome-conjugated Annexin V and 5 μl of PI according to the manufacturer's protocol (BioLegend, San Diego, CA, USA) and analyzed by using a flow cytometer (Attune N. T Flow Cytometer, Thermo Fisher Scientific, Waltham, MA, USA).
Annexin V-FITC and propidium iodide staining provide sensitive outcomes for detecting cellular apoptosis. While annexin V-FITC binds on the surface of cells that undergo programmed cell death, PI detects necrotic or late apoptotic cells characterized by loss of plasma and nuclear membrane integrity. Cells treated with [Ru(bpy)3]^2+ and/or SPS for 1 hour were harvested after treatment and stained with Annexin V-FITC and PI.

The subject of data set [3] is bovine corneas. The data set can be described thus: Rheological measurements of crosslinked corneas (time sweep). The settings on record: 2 mM riboflavin, UV-A 365 nm, after 30 min. How it is done: (§1) For biomechanical experiments, bovine corneas were used. First the corneal epithelia were removed with a scalpel blade and 8 mm central corneal buttons were isolated from bovine eyes with a trephine blade (Katena, Parsippany, NJ, USA). After that, corneal buttons separated into three different experimental groups: • Ruthenium (Ru)-Sodium persulfate (SPS)/visible light, • Riboflavin/UV-A light, and • Control groups.
[Ru(bpy)3]^2+ and SPS solution was prepared in PBS via dissolving Tris(2,2′-bipyridyl)dichlororuthenium(II) hexahydrate (544981, Sigma-Aldrich, MO, USA) and sodium persulfate (216232, Sigma-Aldrich, MO, USA). Ru-SPS solution was prepared in two different concentrations: 0.001 M (1 mM) and 0.0001 M (0.1 mM) was dropped on corneal buttons and the samples were incubated for 5 min for the samples in the Ru-SPS experimental group. Then all solutions were removed, and 430 nm visible light (3 mW/cm^2) was applied to the samples for 40 min. […]
Rheological measurements were carried out in time sweep mode with 1 Hz frequency, 1% strain using TA Instruments AR/DHR series rheometer (New Castle, DE) equipped with two different light sources: visible light ([…]) and UV-A light (λ=365 nm). […] Storage and loss moduli profiles were recorded as a function of time continuously for 40 min at ambient conditions. […]

For data set [4], the system named is bovine corneas. As to the kind of experiment: Uniaxial stress-strain test of corneal strips. Here is the method: as §1
(§2) [Ru(bpy)3]^2+ and SPS solution was prepared in PBS via dissolving Tris(2,2′-bipyridyl)dichlororuthenium(II) hexahydrate (544981, Sigma-Aldrich, MO, USA) and sodium persulfate (216232, Sigma-Aldrich, MO, USA). Ru-SPS solution was prepared in two different concentrations: 0.001 M (1 mM) and 0.0001 M (0.1 mM) was dropped on corneal buttons and the samples were incubated for 5 min for the samples in the Ru-SPS experimental group. Then all solutions were removed, and 430 nm visible light (3 mW/cm^2) was applied to the samples for 40 min. To mimic the standard CXL corneal collagen crosslinking procedure for the riboflavin experimental group, 0.002 M (2 mM) riboflavin 5′-monophosphate solution (18167, Cayman Chemical, MI, USA) was dropped on corneal buttons and the samples were incubated for 5 min. Then riboflavin solution was removed, and 365 nm visible light (3 mW/cm^2) applied to the cornea samples for 40 min. No solution or light was applied to the corneas in the control group.
The stress-strain test was performed on a full-thickness minus the epithelium corneal strips dissected from the bovine corneas. The mechanical properties of all the samples were determined using force and displacement measurements. The initial cross-sectional area and the corresponding force measurements of each test sample were used to calculate the engineering stress. The maximum displacement at the breakage point of each sample was used to estimate the change in the length of each sample. This change in the length was related nominally to the initial length of the corresponding test sample to calculate the engineering strain. The modulus of elasticity and the ultimate tensile strength of each sample was then estimated by the engineering stress-strain curves. The ultimate tensile strength was defined as the peak value of stress on the stress-strain curve before the breakage point of the sample when being stretched. The linear regression analysis between the zero point and the point that equals 70% of the maximum stress for each sample was used to compute the modulus of elasticity. The modulus of elasticity is a material-dependent property such that it depends upon the internal structure and the bond strength between the atoms of each sample. Therefore, the modulus of elasticity remained similar for one sample type; however, it differed for other sample types. […]

Data set [5] concerns bovine corneas. As to the kind of experiment: Osmotic stress (swelling) test. The settings on record: 15% dextran-500 PBS overnight, then three hours in distilled water. How it is done: as §1
as §2, with “control group. […]” for “control group.”

Data set [6] deals with bovine corneas. As to the kind of experiment: Corneal optical transparency and Lambert-Beer penetration distance. How it is done:
The standard protocol for corneal crosslinking can only be applied in cases with a corneal thickness above 400 μm. When applied to thinner corneas, UV-A beam reaches the corneal endothelial cells resulting in endothelial toxicity and corneal edema. For this purpose, the Lambert-Beer formula was applied for optical transmittance results of both photoinitiator solutions (FIG. 6C). Corneal light transmittance was then calculated with the Lambert-Beer formula: […]
In this formula, A represents the optical absorbance of the sample, ε represents the molar attenuation coefficient of the photoinitiator, c is the concentration of the photoinitiator, and l is the total optical path length of the light. For these calculations, molar attenuation coefficients for each photoinitiators (10066 M^−1 cm^−1 for riboflavin and 14,600 M^−1 cm^−1 for tris(2,2′-bipyridyl)ruthenium(II)) obtained from previous literature.[15, 16] […]
Corneal optical transparencies were measured in corresponding light wavelengths for each experimental group. For the 2 mM riboflavin-based crosslinked corneas, average optical transparency in 365 nm was measured as 0.713±0.222. In the same conditions, the average optical transparency for 1 mM ruthenium-based crosslinked corneas was measured as 0.724±0.050 in 430 nm light wavelength, which is correlated with the riboflavin-based CXL procedure. […]

The test system of data set [7] is bovine corneas. As to the kind of experiment: Enzymatic digestion (collagenase) test of corneas. Particulars: 24 hours of digestion by collagenases. How it is done: as §1
as §2, with “control group. […]” for “control group.”

Data set [8] deals with bovine corneas. The data set can be described thus: UV & visible spectrophotometry of corneas. The settings on record: PBS, UV (300-400) and visible (400-800); different crosslinking procedures. Here is the method: Optical transmission and absorption tests were performed on de-epithelized bovine corneas for the UV and visible light spectrum. Control and crosslinked corneas were submerged in PBS, and their optical transmission was assessed using a UV-Vis. Spectrometer (Edinburgh Instruments Spectrofluorometer FS5). Transmittance spectra (% T) were collected from 300 to 800 nm at 1 nm increments. […] The results are illustrated in FIGS. 7A-7B.

For data set [9] the following is noted: obtained from previous literature [15, 16]; cited from earlier work.
Data set [10] deals with cornea. Particulars: background, cited from earlier work; for hardness / stiffness of cross-linked cornea: Rose Bengal/Green Light (532 nm) or riboflavin/UV-A.

Consider `O=S(=O)([O-])OOS(=O)(=O)[O-].[Na+].[Na+]` [SPS, sodium persulfate], for which, in data set [1], the “cytotoxicity influence on viability of cells” value is given as “dose-dependent cytotoxicity”. In addition, the “cell death (Annexin V-FITC/PI)” value in data set [2] is on record as “higher degree of cell death than ruthenium-SPS treated cells”.
In the case of `Cc1cc2nc3c(=O)[nH]c(=O)nc-3n(C[C@H](O)[C@H](O)[C@H](O)COP(=O)(O)O)c2cc1C` [riboflavin, riboflavin 5′-monophosphate], the average storage modulus in data set [3] stood at 92.88 kPa. For the same molecule, the “stiffness compared to control” value in [4] (from modulus of elasticity) is given as “overall increasing stiffness”. In data set [4] (riboflavin-treated), the “increase of modulus of elasticity vs control” value is recorded as “approximately 16%” and the “increase of ultimate tensile strength vs control” value is recorded as “approximately 16%”. In addition, the “strain compared to control” value in data set [4] (stress-strain test) is “decreasing strain trend”. Also, the “swelling vs normal corneas” value in [5] is “less swelling”. This molecule had an average optical transparency in data set [6] (2 mM riboflavin-based crosslinked corneas, 365 nm) of 0.713±0.222. Further, in data set [6] (Lambert-Beer formula applied to optical transmittance results), the “mean distance traveled in the bovine cornea” value is listed as 719 μm. Moreover, the “resistance to enzymatic digestion” value in [7] was “digested entirely after 24 hours”. In [8], the “optical absorbance of corneas, change after crosslinking” value is on record as “did not change significantly” and the “optical transmission of corneas, change after crosslinking” value was “did not change significantly”. Also, the molar attenuation coefficient in [9] is 10066 M⁻¹ cm⁻¹. Besides, the “hardness / stiffness of cross-linked cornea” value in data set [10] was “increased corneal stiffness”. Further, the “healing time of corneal haze, in some eyes” value in [10] (riboflavin/UV-A) is reported as 6-12 months.
Take `O=C1OC2(c3cc(I)c(O)c(I)c3Oc3c2cc(I)c(O)c3I)c2c(Cl)c(Cl)c(Cl)c(Cl)c21` [Rose Bengal]: the “hardness / stiffness of cross-linked cornea” value in data set [10] is reported as “increased hardness”. Besides, the “depth of cross-linking effect” value in [10] (Rose Bengal/Green Light (532 nm)) is listed as “more superficial effect”.
